From patent US10753924B2, “Method for selecting patients responsive for cancer treatments” (Mitogro OÜ, priority 2016, dated 2020)
Marks after values point to notes of the source that are not given here.

Columns and labels:
[1] = system: permeabilized human breast cancer fibers; assay: Citrate efflux from permeabilized fibers derived from human breast cancer clinical sample; type: cell-based
Description: In order to reach experiment targets, the sarcolemma and plasma membranes in skinned tumor fibers were completely permeabilized by saponin treatment keeping the mitochondrial membranes intact (both tumor and healthy tissue samples from the same patient were processed equally). Namely, skinned fibers were transferred into plastic vials with pre-cooled (on ice) Lahus-A (Table 8) containing 50 μg/ml saponin and incubated with mild stirring (at 40 rpm) for 30 min at 4° C. Permeabilized fibers were then washed in pre-cooled solution Lahus-B (Table 3) for 5 min under mild stirring; this washing procedure was performed three times to completely remove saponin and all soluble metabolites. The washed samples were placed into Lahus-B (Table 3) and kept in the same medium (at 4° C.) until use.
The experiments were carried out in an Oroboros oxygraph. Two parallel chambers on the same device were used. Reaction medium was Lahus-B (Table 3).
(§1) Saponine concetration suitable for viability of skinned breast cancer fibers was defined as 50 μg/ml. Malate, 2 mM, was present in all protocols in the reaction medium. BMS303141 was used to inhibit activity of ATP-citrate lyase to stop it from metabolizing free citrate that accumulates to the reaction medium. 1,2,3-benzenetricarboxylic acid was used to stop citrate efflux from mitochondria. Cytochorome c and CAT were injected to the reaction medium right at the end of the experiment to assess the quality of mitochondrial inner and outer membranes.
Duration of the induction phase: 1 hour.
Once the induction medium was ended, the reaction medium was transferred to 2.5 ml Eppendorf tube for centrifugation (14 000 rpm, 7 minutes). Fiber was removed from the reaction medium and weighted for calculations. The supernatant from the centrifugation was collected through syringe filter and stored on ice. Remaining debris was discarded as biological waste.
900 μl of each supernatant was used to enzymatically measure concentration of citrate as described before (Petrarulo et al, 1995).

[2] = system: permeabilized MCF-7 cells; assay: Citrate efflux from permeabilized MCF-7 cells (induction phase in Oroboros oxygraph, enzymatic citrate measurement); type: cell-based, human; settings: 4.56 × 10^6 cells/ml
Description: Stock culture of MCF-7 cells was obtained from American Type Culture Collection (ATCC® Number: HTB-22™). The cells were grown as adherent monolayers in big T75 flasks (Greiner Bio-One GmbH, Germany) in low glucose (1.0 g/L) DMEM with stable L-glutamine (PAA Laboratories GmbH, Austria) that was supplemented with 1 mM Na-pyruvate (Gibco®, REF 11360-039), 10% heat-inactivated fetal bovine serum (FBS), […] human recombinant insulin (Gibco) and antibiotics: penicillin (100 U/ml), streptomycin (100 μg/ml) and gentamicin at a final concentration of 50 μg/ml. MCF-7 cells were grown and maintained at 37° C. in a humidified incubator containing 5% CO2 in air. The cells were sub-cultured at 2-3 day intervals.
MCF-7 cells were harvested from 5 T75 flasks (72 h after their seeding at a subculturing ratio of 1/5) by means of accutase (a cell detachment agent) treatment.
After detachment, the cell were washed twice with Mitomed-B solution (see Table 2), supplemented with lmg/ml bovine serum albumin (BSA) and 3-5 μM leupeptin (protease inhibitor) with centrifugation (on a Heraus “Biofuge primo R” refrigerated centrifuge equipped with a swing-out rotor, 150×g for 7 min at 4° C.). After washing, the pellet was resuspended in 2.5 ml of Mitomed-B (supplemented with lmg/ml BSA and 3-5 μM leupeptin) and the cells were stored on melting ice.
The experiments were carried out in an Oroboros oxygraph. Two parallel chambers on the same device were used. Reaction medium was Lahus-B as described below (Table 3).
as §1, with “MCF-7 cells” for “skinned breast cancer fibers”, “30” for “50”, “ATP-citratelyase” for “ATP-citrate lyase”, “Saponine incubation time was 5 minutes. Cytochrome” for “Cytochorome”, “membranes. […]” for “membranes.”

`O=C(O)c1cccc(C(=O)O)c1C(=O)O` [1,2,3-BTC, 1,2,3-benzenetricarboxylic acid] was tested, and the “effect on citrate accumulation in the reaction medium” value ([1]; permeabilized human breast cancer fibers, 1,2,3-BTC 1 mM) was “blocked the citrate accumulation in the reaction medium”, the citrate efflux ([1]; protocol 2: Glut/Mal, 1,2,3-BTC 1 mM, cancer fibers, footnote: result below detection limit (without inhibitor: 144.1, 172.1)) was 41.7** ng citrate/mg × 60 min and the citrate efflux ([1]; protocol 4: Pyr/Mal, 1,2,3-BTC 1 mM, cancer fibers, footnote: result below detection limit (without inhibitor: 194.6)) was 17.6** ng citrate/mg × 60 min. The citrate efflux ([1]; protocol 6: Palcar/Mal, 1,2,3-BTC 1 mM, cancer fibers (without inhibitor: 158.7)) was 73.7 ng citrate/mg × 60 min, the citrate efflux ([2]; protocol 2: glutamate 5 mM + malate 2 mM, 1,2,3-BTC 1 mM, 1 hour induction (without inhibitor: 1428)) was 1098 ng citrate per 10^6 cells per and the citrate efflux ([2]; protocol 4: pyruvate 0.05 mM + malate 2 mM, 1,2,3-BTC 1 mM, 1 hour induction (without inhibitor: 5564)) was 1524 ng citrate per 10^6 cells per. For the same compound, the citrate efflux ([2]; protocol 6: PalCar 40 μM + malate 2 mM, 1,2,3-BTC 1 mM, 1 hour induction (without inhibitor: 3059)) was 1156 ng citrate per 10^6 cells per.
